{
  "source": "patent US9738634B2",
  "about": "“Heterocyclic amide compound and herbicide” (SYNGENTA PARTICIPATIONS AG, priority 2013, dated 2017)",
  "type_in_all_cases": "in vivo",
  "conditions_in_all_cases": "treatment dosage 315 g/ha",
  "key": {"[1]": {"system": "soybean", "assay": "Test Example 4: foliar treatment, effect on crop; d: soybean", "outline": "(§1)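 Seeds are spot-sown into sterilized diluvial soil and covered with about 1.5 cm of soil. After 14 days' greenhouse growth at 25 to 30° C, plants are sprayed on stems and leaves with diluted emulsion at the stated g/ha rate, then scored at 3 weeks.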"}, "[2]": {"system": "fig-leafed goosefoot", "assay": "Test Example 4: weedkilling efficacy by foliar treatment; M: fig-leafed goosefoot", "outline": "as §1"}, "[3]": {"system": "corn", "assay": "Test Example 4: foliar treatment, effect on crop; c: corn", "outline": "as §1"}, "[4]": {"system": "directly sown rice", "assay": "Test Example 4: foliar treatment, effect on crop; b: directly sown rice", "outline": "as §1"}, "[5]": {"system": "beet", "assay": "Test Example 3: soil treatment, effect on crop; f: beet", "outline": "(§2)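 Crop and weed responses were judged three weeks after a uniform surface spray of the water-diluted emulsion at the given g/ha rate. Seeds sat beneath about 1.5 cm of sterilized diluvial soil, and boxes stood in a greenhouse at 25 to 30° C.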"}, "[6]": {"system": "green foxtail", "assay": "Test Example 4: weedkilling efficacy by foliar treatment; E: green foxtail", "outline": "as §1"}, "[7]": {"system": "wheat", "assay": "Test Example 4: foliar treatment, effect on crop; e: wheat", "outline": "as §1"}, "[8]": {"system": "soybean", "assay": "Test Example 3: soil treatment, effect on crop; d: soybean", "outline": "as §2"}, "[9]": {"system": "corn", "assay": "Test Example 3: soil treatment, effect on crop; c: corn", "outline": "as §2"}, "[10]": {"system": "wild oat", "assay": "Test Example 3: weedkilling efficacy through soil treatment; G: wild oat", "outline": "as §2"}, "[11]": {"system": "beet", "assay": "Test Example 4: foliar treatment, effect on crop; f: beet", "outline": "as §1"}, "[12]": {"system": "wild oat", "assay": "Test Example 4: weedkilling efficacy by foliar treatment; G: wild oat", "outline": "as §1"}, "[13]": {"system": "Indian mallow", "assay": "Test Example 4: weedkilling efficacy by foliar treatment; K: Indian mallow", "outline": "as §1"}, "[14]": {"system": "chickweed", "assay": "Test Example 4: weedkilling efficacy by foliar treatment; N: chickweed", "outline": "as §1"}, "[15]": {"system": "fig-leafed goosefoot", "assay": "Test Example 3: weedkilling efficacy through soil treatment; M: fig-leafed goosefoot", "outline": "as §2"}, "[16]": {"system": "redroot pigweed", "assay": "Test Example 3: weedkilling efficacy through soil treatment; L: redroot pigweed", "outline": "as §2"}, "[17]": {"system": "green foxtail", "assay": "Test Example 3: weedkilling efficacy through soil treatment; E: green foxtail", "outline": "as §2"}, "[18]": {"system": "black-grass", "assay": "Test Example 4: weedkilling efficacy by foliar treatment; H: black-grass", "outline": "as §1"}, "[19]": {"system": "catchweed", "assay": "Test Example 4: weedkilling efficacy by foliar treatment; O: catchweed", "outline": "as §1"}, "[20]": {"system": "redroot pigweed", "assay": "Test Example 4: weedkilling efficacy by foliar treatment; L: redroot pigweed", "outline": "as §1"}, "[21]": {"system": "crabgrass", "assay": "Test Example 3: weedkilling efficacy through soil treatment; D: crabgrass", "outline": "as §2"}, "[22]": {"system": "black-grass", "assay": "Test Example 3: weedkilling efficacy through soil treatment; H: black-grass", "outline": "as §2"}, "[23]": {"system": "wheat", "assay": "Test Example 3: soil treatment, effect on crop; e: wheat", "outline": "as §2"}, "[24]": {"system": "catchweed", "assay": "Test Example 3: weedkilling efficacy through soil treatment; O: catchweed", "outline": "as §2"}, "[25]": {"system": "Italian ryegrass", "assay": "Test Example 3: weedkilling efficacy through soil treatment; I: Italian ryegrass", "outline": "as §2"}, "[26]": {"system": "Italian ryegrass", "assay": "Test Example 4: weedkilling efficacy by foliar treatment; I: Italian ryegrass", "outline": "as §1"}, "[27]": {"system": "crabgrass", "assay": "Test Example 4: weedkilling efficacy by foliar treatment; D: crabgrass", "outline": "as §1"}, "[28]": {"system": "birds-eye speedwell", "assay": "Test Example 3: weedkilling efficacy through soil treatment; p: birds-eye speedwell", "outline": "as §2"}, "[29]": {"system": "directly sown rice", "assay": "Test Example 3: soil treatment, effect on crop; b: directly sown rice", "outline": "as §2"}, "[30]": {"system": "chickweed", "assay": "Test Example 3: weedkilling efficacy through soil treatment; N: chickweed", "outline": "as §2"}, "[31]": {"system": "Indian mallow", "assay": "Test Example 3: weedkilling efficacy through soil treatment; K: Indian mallow", "outline": "as §2"}, "[32]": {"system": "birds-eye speedwell", "assay": "Test Example 4: weedkilling efficacy by foliar treatment; p: birds-eye speedwell", "outline": "as §1"}},
  "data": [
    {"smiles": "CC1=C(c2cccnc2F)C(=O)N(C(C)(C)C(=O)Nc2cc(C(F)(F)F)ccn2)CO1", "note": "[B-2-17, 2-[5-(2-fluoropyridin-3-yl)-6-methyl-4-oxo-2H-1,3-oxazin-3(4H)-yl]-2-methyl-N-[4-(trifluoromethyl)pyridin-2-yl] propionamide]", "values": [
      {"measurement": "d (soybean) effect on crop grade", "setting": "[1]", "result": "0 (weed kill ratio 5% or less (practically no effect))"},
      {"measurement": "M (fig-leafed goosefoot) weedkilling efficacy grade", "setting": "[2]", "result": "2 (weed kill ratio 20% or more, less than 40%)"},
      {"measurement": "c (corn) effect on crop grade", "setting": "[3]", "result": "3 (weed kill ratio 40% or more, less than 70%)"},
      {"measurement": "b (directly sown rice) effect on crop grade", "setting": "[4]", "result": "5 (weed kill ratio 90% or more, (practically complete withering))"},
      {"measurement": "f (beet) effect on crop grade", "setting": "[5]", "result": "0 (weed kill ratio 5% or less (practically no effect))"},
      {"measurement": "E (green foxtail) weedkilling efficacy grade", "setting": "[6]", "result": "5 (weed kill ratio 90% or more, (practically complete withering))"},
      {"measurement": "e (wheat) effect on crop grade", "setting": "[7]", "result": "0 (weed kill ratio 5% or less (practically no effect))"},
      {"measurement": "d (soybean) effect on crop grade", "setting": "[8]", "result": "2 (weed kill ratio 20% or more, less than 40%)"},
      {"measurement": "c (corn) effect on crop grade", "setting": "[9]", "result": "2 (weed kill ratio 20% or more, less than 40%)"},
      {"measurement": "G (wild oat) weedkilling efficacy grade", "setting": "[10]", "result": "5 (weed kill ratio 90% or more, (practically complete withering))"},
      {"measurement": "f (beet) effect on crop grade", "setting": "[11]", "result": "2 (weed kill ratio 20% or more, less than 40%)"},
      {"measurement": "G (wild oat) weedkilling efficacy grade", "setting": "[12]", "result": "4 (weed kill ratio 70% or more, less than 90%)"},
      {"measurement": "K (Indian mallow) weedkilling efficacy grade", "setting": "[13]", "result": "1 (weed kill ratio 5% or more, less than 20%)"},
      {"measurement": "N (chickweed) weedkilling efficacy grade", "setting": "[14]", "result": "2 (weed kill ratio 20% or more, less than 40%)"},
      {"measurement": "M (fig-leafed goosefoot) weedkilling efficacy grade", "setting": "[15]", "result": "3 (weed kill ratio 40% or more, less than 70%)"},
      {"measurement": "L (redroot pigweed) weedkilling efficacy grade", "setting": "[16]", "result": "2 (weed kill ratio 20% or more, less than 40%)"},
      {"measurement": "E (green foxtail) weedkilling efficacy grade", "setting": "[17]", "result": "5 (weed kill ratio 90% or more, (practically complete withering))"},
      {"measurement": "H (black-grass) weedkilling efficacy grade", "setting": "[18]", "result": "4 (weed kill ratio 70% or more, less than 90%)"},
      {"measurement": "O (catchweed) weedkilling efficacy grade", "setting": "[19]", "result": "0 (weed kill ratio 5% or less (practically no effect))"},
      {"measurement": "L (redroot pigweed) weedkilling efficacy grade", "setting": "[20]", "result": "3 (weed kill ratio 40% or more, less than 70%)"},
      {"measurement": "D (crabgrass) weedkilling efficacy grade", "setting": "[21]", "result": "5 (weed kill ratio 90% or more, (practically complete withering))"},
      {"measurement": "H (black-grass) weedkilling efficacy grade", "setting": "[22]", "result": "5 (weed kill ratio 90% or more, (practically complete withering))"},
      {"measurement": "e (wheat) effect on crop grade", "setting": "[23]", "result": "1 (weed kill ratio 5% or more, less than 20%)"},
      {"measurement": "O (catchweed) weedkilling efficacy grade", "setting": "[24]", "result": "1 (weed kill ratio 5% or more, less than 20%)"},
      {"measurement": "I (Italian ryegrass) weedkilling efficacy grade", "setting": "[25]", "result": "5 (weed kill ratio 90% or more, (practically complete withering))"},
      {"measurement": "I (Italian ryegrass) weedkilling efficacy grade", "setting": "[26]", "result": "5 (weed kill ratio 90% or more, (practically complete withering))"},
      {"measurement": "D (crabgrass) weedkilling efficacy grade", "setting": "[27]", "result": "5 (weed kill ratio 90% or more, (practically complete withering))"},
      {"measurement": "P (birds-eye speedwell) weedkilling efficacy grade", "setting": "[28]", "result": "5 (weed kill ratio 90% or more, (practically complete withering))"},
      {"measurement": "b (directly sown rice) effect on crop grade", "setting": "[29]", "result": "4 (weed kill ratio 70% or more, less than 90%)"},
      {"measurement": "N (chickweed) weedkilling efficacy grade", "setting": "[30]", "result": "3 (weed kill ratio 40% or more, less than 70%)"},
      {"measurement": "K (Indian mallow) weedkilling efficacy grade", "setting": "[31]", "result": "2 (weed kill ratio 20% or more, less than 40%)"},
      {"measurement": "P (birds-eye speedwell) weedkilling efficacy grade", "setting": "[32]", "result": "2 (weed kill ratio 20% or more, less than 40%)"}
    ]}
  ]
}
